The text below walks through data of paper PMC9518248, “Inhibition of Toxoplasma gondii by 1,2,4-triazole-based compounds: marked improvement in selectivity relative to the standard therapy pyrimethamine and sulfadiazine” (Journal of Enzyme Inhibition and Medicinal Chemistry, 2022).

Series [1] relates to mouse fibroblasts L929 cells. As to the kind of experiment: Cell viability assay (MTT, ISO 10993-5). To be noted: 24 h, highest dilution causing 30% or higher destruction of cells. In kind it is cell-based. The method, then:
Culture medium RPMI 1640, without phenol red (Biowest, Nuaille, France) supplemented with 10% FBS, 2 mM […] penicillin, 100 μg/mL streptomycin were used. Briefly, 1 × 10^4/well of L929 cells were placed in 96-well plates and incubated for 24 h at 37 °C and 10% CO2. Afterwards, the old culture medium was replaced with 100 μL of the compound, drug or inhibitor, diluted in culture medium and the cells treated for 24 h. Additionally, cells were treated with 0.03-4.0% concentration of DMSO as the solvent (data not shown). Then, 50 μL of 1 mg/mL of MTT solution in RPMI 1640 without phenol red was added to each well and incubated for 2 h at 37 °C and 10% CO2. Next, cell culture medium was aspirated carefully and 150 μL of DMSO was added to each well, and the plates were gently mixed. Then, 25 μL 0.1 M glycine buffer (pH 10.5) (Sigma-Aldrich) was added. The optical density at 570 nm using a multi-mode microplate reader SpectraMax® i3 (Syngen, Taipei City, Taiwan) was recorded. The results were expressed as a percentage of viability compared to untreated cells. All experiments were performed in triplicate. The reported methyl thiazolyltetrazole (MTT) method was used to study in vitro cytotoxic profile of the s-triazoles 1b-27b to the host cells (L929). Experiments were performed in accordance with the international standard IS0-10993-5:2009. […] The data for acyclic precursors 1a-27a are also included for comparison[39]^,[40].

For another series, the system named is T. gondii RH-GFP. The series is described as follows: Antiparasitic assay: T. gondii RH-GFP proliferation in Hs27 cells. Particulars: for IC50: Toxoplasma gondii, T. gondii RH-GFP in Hs27 cells, 96 h, values above highest tested concentration extrapolated, read-out: IC50Tg; for SI: selectivity index, CC30 (L929)/IC50Tg. In kind it is cell-based, Toxoplasma gondii.

The nature of series [2]: Cytotoxicity against glioblastoma cells (MTT). To be noted: human, T98G glioblastoma cells, MTT, read-out: Viability of T98G cells (% of control ± SD). In kind it is cell-based, human. The procedure:
(§1) Cytotoxic effect of 20b was evaluated using glioblastoma (T98G) cells obtained from the American Type Culture Collection (Manassas, VA). Cells were cultured in Dulbecco’s Modified Eagle’s Medium (DMEM-high glucose) (Sigma Aldrich, St. Louis, MO), supplemented with 10% heat inactivated FBS, penicillin (100 U/mL), and streptomycin (100 μg/mL) (Sigma Aldrich, St. Louis, MO). Cells were maintained in a humidified atmosphere of 5% CO2 and 95% air at 37 °C. Stock solutions of the investigated compounds (20b and temozolomide) were prepared by dissolving solid substances in a sterile DMSO. T98G glioblastoma cells were seeded into 96-well sterile plates at a density of 1 × 10^5cells/mL. After 24 h of incubation, the medium was removed from each well and then cells were incubated for the next 24 h with different concentrations of the investigated compounds (10, 25, 35, 50, and 100 µg/mL) in the medium containing 2% FBS. Viability of T98G cells was evaluated using MTT assay, whose principle is based on the conversion of 3–(4,5-dimethylthiazol-2-yl)-2,5-diphenyltetrazolium bromide (MTT) into dark-blue formazan crystals. In brief, after 24 h incubation of cells with varying concentrations of the tested compounds, culture medium was removed from the plate. Cells were washed with PBS, and then 100 µL of medium containing 10% MTT solution (5 mg/mL) was added to each well. After 3 h incubation, 100 µL (per well) of 10% SDS buffer solution was added to solubilise formazan crystals. After overnight incubation the absorbance was measured at 570 nm using a microplate reader (Epoch, BioTek Instruments, Winooski, VT). Experiments were repeated three times, and the measurements in each experiment were run in quadruplicate. Viability of the investigated cells was expressed as % of the viability of the untreated cells.

The test system of series [3] is human glioblastoma T98G cells. The series is described as follows: Cytotoxicity against glioblastoma cells (MTT). To be noted: 24 h. In kind it is cell-based. The method, then: as §1

Values after ≈ are worked out from the molar mass of the structure shown.

For the molecule `Cc1nc[nH]c1-c1n[nH]c(=S)n1-c1ccccc1Cl` [4b, 4–(2-chlorophenyl)-5–(4-methylimidazol-5-yl)-1,2,4-triazole-3-thione], the melting point – broadly, the temperature, or range, at which the solid turns liquid – stood at 243.4 °C. In series [1], the CC30 amounted to 698.23 µg/mL (≈ 2390 µM). Moreover, in the series on T. gondii RH-GFP, the IC50 is 345 µg/mL (≈ 1180 µM) and the SI amounted to 2.03.
Molecule `Cc1nc[nH]c1-c1n[nH]c(=S)n1-c1cccc(Cl)c1` [5b, 4–(3-chlorophenyl)-5–(4-methylimidazol-5-yl)-1,2,4-triazole-3-thione] showed a melting point of 297.8 °C. This molecule also had a CC30 in series [1] of 721.27 µg/mL (≈ 2470 µM). Besides, in the series on T. gondii RH-GFP, the IC50 is 310 µg/mL (≈ 1060 µM) and the SI was found to be 2.32.
`Cc1nc[nH]c1-c1n[nH]c(=S)n1-c1ccc(Cl)cc1` [6b, 4–(4-chlorophenyl)-5–(4-methylimidazol-5-yl)-1,2,4-triazole-3-thione] yielded a melting point of 255.8 °C. This molecule showed a CC30 in series [1] of 460.26 µg/mL (≈ 1580 µM). In the series on T. gondii RH-GFP, the IC50 is 267 µg/mL (≈ 914 µM) and the SI worked out at 1.73.
On the same counts, the results for `Cc1nc[nH]c1-c1n[nH]c(=S)n1-c1ccccc1Br` [7b, 4–(2-bromophenyl)-5–(4-methylimidazol-5-yl)-1,2,4-triazole-3-thione] are 235.6 °C, 2116.90 µg/mL (≈ 6300 µM), 66.7 µg/mL (≈ 199 µM) and 31.72.
On to `Cc1nc[nH]c1-c1n[nH]c(=S)n1-c1cccc(Br)c1` [8b, 4–(3-bromophenyl)-5–(4-methylimidazol-5-yl)-1,2,4-triazole-3-thione], for which the melting point worked out at 299.7 °C. Moreover, in series [1], the CC30 is 660.09 µg/mL (≈ 1960 µM). Moreover, in the series on T. gondii RH-GFP, the IC50 is 103 µg/mL (≈ 306 µM) and the SI came to 6.41.
Taken in the same sequence, the figures for `Cc1nc[nH]c1-c1n[nH]c(=S)n1-c1ccc(Br)cc1` [9b, 4–(4-bromophenyl)-5–(4-methylimidazol-5-yl)-1,2,4-triazole-3-thione] were 265.9 °C, 225.58 µg/mL (≈ 671 µM), 153 µg/mL (≈ 455 µM) and 1.48.
Molecule `Cc1nc[nH]c1-c1n[nH]c(=S)n1-c1ccccc1I` [10b, 4–(2-iodophenyl)-5–(4-methylimidazol-5-yl)-1,2,4-triazole-3-thione] showed a melting point of 297.6 °C. Also, in series [1], the CC30 was found to be 1021.41 µg/mL (≈ 2670 µM). Besides, in the series with T. gondii RH-GFP, the IC50 is 80.3 µg/mL (≈ 209 µM) and the SI stood at 12.73.
Consider `Cc1nc[nH]c1-c1n[nH]c(=S)n1-c1cccc(I)c1` [11b, 4–(3-iodophenyl)-5–(4-methylimidazol-5-yl)-1,2,4-triazole-3-thione], for which the melting point was determined as 276.5 °C. The CC30 in series [1] was found to be 625.17 µg/mL (≈ 1630 µM). In the series with T. gondii RH-GFP, the IC50 was 36.4 µg/mL (≈ 95.1 µM) and the SI is 17.16.
On to `Cc1nc[nH]c1-c1n[nH]c(=S)n1-c1ccc(I)cc1` [12b, 4–(4-iodophenyl)-5–(4-methylimidazol-5-yl)-1,2,4-triazole-3-thione], for which the melting point turned out to be 290 °C. The same molecule registered a CC30 in series [1] of 483.06 µg/mL (≈ 1260 µM). Further, in the series on T. gondii RH-GFP, the IC50 was 99.1 µg/mL (≈ 259 µM) and the SI is reported as 4.88.
Consider `Cc1ccccc1-n1c(-c2[nH]cnc2C)n[nH]c1=S` [14b, 5–(4-methylimidazol-5-yl)-4–(2-methylphenyl)-1,2,4-triazole-3-thione], for which the melting point is 249.9 °C. Also, the CC30 in series [1] amounted to 2414.35 µg/mL (≈ 8900 µM). In the series with T. gondii RH-GFP, the IC50 was 77.3 µg/mL (≈ 285 µM) and the SI turned out to be 31.23.
Taken in the same sequence, the figures for `Cc1cccc(-n2c(-c3[nH]cnc3C)n[nH]c2=S)c1` [15b, 5–(4-methylimidazol-5-yl)-4–(3-methylphenyl)-1,2,4-triazole-3-thione] were 248.7 °C, 579.43 µg/mL (≈ 2140 µM), 79.1 µg/mL (≈ 292 µM) and 7.33.
The molecule `Cc1ccc(-n2c(-c3[nH]cnc3C)n[nH]c2=S)cc1Cl` [17b, 4–(3-chloro-4-methylphenyl)-5–(4-methylimidazol-5-yl)-1,2,4-triazole-3-thione] yielded a melting point of 264.1 °C. Moreover, the CC30 in series [1] was found to be 414.57 µg/mL (≈ 1360 µM). In the series on T. gondii RH-GFP, the IC50 was 175 µg/mL (≈ 572 µM) and the SI stood at 2.37.
For `COc1ccc(-n2c(-c3[nH]cnc3C)n[nH]c2=S)cc1OC` [21b, 4–(3,4-dimethoxyphenyl)-5–(4-methylimidazol-5-yl)-1,2,4-triazole-3-thione], the melting point came to 213.4 °C. In addition, the CC30 in series [1] turned out to be 318.42 µg/mL (≈ 1000 µM). Besides, in the series with T. gondii RH-GFP, the IC50 is 139 µg/mL (≈ 438 µM) and the SI is 2.29.
In turn, `CCOc1ccc(-n2c(-c3[nH]cnc3C)n[nH]c2=S)cc1` [22b, 4–(4-ethoxyphenyl)-5–(4-methylimidazol-5-yl)-1,2,4-triazole-3-thione] showed a melting point of 239.9 °C. Moreover, in series [1], the CC30 is listed as 1881.91 µg/mL (≈ 6240 µM). In the series with T. gondii RH-GFP, the IC50 was 64.2 µg/mL (≈ 213 µM) and the SI is 29.33.
In turn, `CC(=O)c1cccc(-n2c(-c3[nH]cnc3C)n[nH]c2=S)c1` [23b, 4–(3-acetylphenyl)-5–(4-methylimidazol-5-yl)-1,2,4-triazole-3-thione] displayed a melting point of 151.9 °C. Besides, in the series with T. gondii RH-GFP, the IC50 was 141 µg/mL (≈ 469 µM) and the SI amounted to 17.79.
As for `Cc1nc[nH]c1-c1n[nH]c(=S)n1-c1c(C(C)C)cccc1C(C)C` [24b, 4–(2,6-diisopropylphenyl)-5–(4-methylimidazol-5-yl)-1,2,4-triazole-3-thione], the melting point came to 251.9 °C. The molecule further displayed a CC30 in series [1] of 144.94 µg/mL (≈ 424 µM). For the same molecule, in the series on T. gondii RH-GFP, the IC50 was 61.7 µg/mL (≈ 181 µM) and the SI is given as 2.35.
In turn, `Cc1nc[nH]c1-c1n[nH]c(=S)n1-c1ccc(N(C)C)cc1` [25b, 5–(4-methylimidazol-5-yl)-4–(4-dimethyloaminophenyl)-1,2,4-triazole-3-thione] returned a melting point of 288.2 °C. The molecule further came in with a CC30 in series [1] of 755.61 µg/mL (≈ 2520 µM). In addition, in the series on T. gondii RH-GFP, the IC50 is 285 µg/mL (≈ 950 µM) and the SI came out at 2.65.
With `CCN(CC)c1ccc(-n2c(-c3[nH]cnc3C)n[nH]c2=S)cc1` [26b, 4–(4-diethylaminophenyl)-5–(4-methylimidazol-5-yl)-1,2,4-triazole-3-thione], the melting point came to 147 °C. Moreover, the CC30 in series [1] worked out at 230.94 µg/mL (≈ 703 µM). In the series with T. gondii RH-GFP, the IC50 is 157 µg/mL (≈ 478 µM) and the SI was 1.47.
Molecule `Cc1nc[nH]c1-c1n[nH]c(=S)n1Cc1ccccc1` [27b, 4-benzyl-5–(4-methylimidazol-5-yl)-1,2,4-triazole-3-thione] registered a melting point of 229.5 °C. The molecule also came in with a CC30 in series [1] of 425.30 µg/mL (≈ 1570 µM). Further, in the series with T. gondii RH-GFP, the IC50 is 148 µg/mL (≈ 545 µM) and the SI is reported as 2.87.
On to `Cn1nnc2c(C(N)=O)ncn2c1=O` [Temozolomide, reference compound], for which the viability (usually a read-out of living cells in per cent, often relative to untreated cells) at 24 h, 10 µg/mL in series [2] (10 µg/mL) was 66.6 ± 1.07%. For the same molecule, the viability at 24 h, 25 µg/mL in series [2] (25 µg/mL) was found to be 61.11 ± 0.45%. Moreover, the viability at 24 h, 35 µg/mL in series [2] (35 µg/mL) is 57.3 ± 2.25%. The viability at 24 h, 50 µg/mL in series [2] (50 µg/mL) turned out to be 55.3 ± 1.81%. In addition, in series [2] (100 µg/mL), the viability at 24 h, 100 µg/mL is 53.95 ± 0.33%. Further, the entries for the “reduction of T98G cell viability” value in series [3] (10 µg/mL) and in series [3] (100 µg/mL) were ~33% and ~46%, respectively.
